Patent US20230210864A1, “AGENT FOR PROMOTING CORNEAL ENDOTHELIAL CELL ADHESION” (Senju Pharmaceutical Co., Ltd., priority 2007, published 2023)

Assays:
[1] = tested on: monkey corneal endothelial cells; assay: Primary culture of monkey corneal endothelial cells with Y-27632, phase contrast observation; format: cell-based, Macaca fascicularis; conditions: Y-27632 10 μM
Protocol: From the corneal tissue isolated from Macaca fascicularis euthanized for other purpose, Descemet's membrane with corneal endothelial cells attached thereto was separated. For the ROCK inhibitor(+) group, the Descemet's membrane was placed in a medium for corneal endothelium added with Y-27632 (10 μM) and incubated under the conditions of 37° C., 5% CO2 for 10 min. For the ROCK inhibitor(−) group, the membrane was placed in a medium for corneal endothelium without addition of Y-27632 and incubated for 10 min under the same conditions. As the medium for corneal endothelium, the same cell culture medium as in Example 1 was used. The Descemet's membrane after the incubation was incubated together with Dispase II (1.2 U/ml, Roche Applied Science) under the conditions of 37° C., 5% CO2 for 45 min, and the corneal endothelial cells were mechanically separated by a pipetting operation. The separated corneal endothelial cells were centrifuged and stirred in the media for corneal endothelium with Y-27632(+) and Y-27632(−) to the same concentration, and the cells were seeded on a 12 well plate at a density of about 20000 cells per well. The plate was pre-treated with an FNC coating mix (Athena ES) for 10 min. […]

[2] = tested on: human corneal endothelial cells; assay: Primary culture of human corneal endothelial cells with Y-27632, phase contrast observation; format: cell-based; conditions: Y-27632 10 μM
Protocol: Of human corneal tissues obtained from the US eye bank, the central part (diameter 7 mm) had been used for corneal transplantation and the remaining surrounding corneal tissue was used. The Descemet's membrane with corneal endothelial cells adhered thereto was separated. For the ROCK inhibitor(+) group, the Descemet's membrane was placed in a medium for corneal endothelium added with Y-27632 (10 μM) and incubated under the conditions of 37° C., 5% CO2 for 10 min. For the ROCK inhibitor(−) group, the membrane was placed in a medium for corneal endothelium without addition of Y-27632 and incubated for 10 min under the same conditions. As the medium for corneal endothelium, the same culture medium as in Example 1 was used. The Descemet's membrane after the incubation was incubated together with Dispase II (1.2 U/ml, Roche Applied Science) under the conditions of 37° C., 5% CO2 for 45 min, and the corneal endothelial cells were mechanically separated by a pipetting operation. The separated corneal endothelial cells were centrifuged and stirred in the media for corneal endothelium with Y-27632(+) and Y-27632(−) to the same concentration, and the cells were seeded on a 48 well plate pre-treated with an FNC coating mix (Athena ES) at a density of about 10000 cells per well. […]

[3] = tested on: monkey corneal endothelial cells; assay: Passage culture of monkey corneal endothelial cells with Y-27632, cell count by CellTiter-Glo; format: cell-based, Macaca fascicularis; conditions: Y-27632 10 μM, dilution ½, ⅙ or ⅛
Protocol: From the corneal tissue isolated from Macaca fascicularis euthanized, Descemet's membrane with corneal endothelial cells attached thereto was separated. The Descemet's membrane was incubated together with Dispase II (1.2 U/ml, Roche Applied Science) under the conditions of 37° C., 5% CO2 for 45 min, and the corneal endothelial cells were mechanically separated by a pipetting operation. The separated corneal endothelial cells were centrifuged and seeded on a media for corneal endothelium. The corneal endothelial cells that reached confluent were incubated with 0.05% trypsin under the conditions of 37° C., 5% CO2 for 10 min, and passage-cultured. After 4 to 6 passages, the corneal endothelial cells were placed in a 96-well plate to a dilution of ½, ⅙ or ⅛. The passage culture was continued using a medium for corneal endothelium added with Y-27632 (10 μM) for the ROCK inhibitor(+) group and a medium for corneal endothelium without addition of Y-27632 for the ROCK inhibitor(−) group. At 24 hr after the passage, the cells were counted in the same manner as in Example 5 using CellTiter-Glo (registered trade mark, Promega) (FIG. 8).

[4] = tested on: monkey corneal endothelial cells; assay: Apoptosis of monkey corneal endothelial cells (flow cytometry with Annexin V and PI); format: cell-based, Macaca fascicularis; conditions: Y-27632 10 μM, day 1 of the passage culture
Protocol: The Macaca fascicularis corneal endothelial cells passage-cultured in the same manner as in Example 6 were subcultured to a dilution of ¼. A medium for corneal endothelium added with Y-27632 (10 μM) was used for the ROCK inhibitor(+) group and a medium for corneal endothelium without addition of Y-27632 was used for the ROCK inhibitor(−) group. On day 1 of the passage culture, all the cells including those in the medium were collected using 0.05% trypsin and subjected to flow cytometry using Annexin V and PI (Propidium Iodide), and apoptosis was examined (FIGS. 14 and 15).

[5] = tested on: monkey corneal endothelial cells; assay: Density of cultured monkey corneal endothelial cells over repeated passages; format: cell-based, Macaca fascicularis; conditions: Y-27632 10 μM, passage repeated 7 times
Protocol: From the corneal tissue isolated from Macaca fascicularis euthanized, Descemet's membrane with corneal endothelial cells attached thereto was separated. The Descemet's membrane was incubated together with Dispase II (1.2 U/ml, Roche Applied Science) under the conditions of 37° C., 5% CO2 for 45 min, and the corneal endothelial cells were mechanically separated by a pipetting operation. The separated corneal endothelial cells were centrifuged and seeded on a medium for corneal endothelium. The corneal endothelial cells that reached confluent were incubated with 0.05% trypsin under the conditions of 37° C., 5% CO2 for 10 min, and passage-cultured. A medium for corneal endothelium added with Y-27632 (10 μM) was used for the ROCK inhibitor(+) group and a medium for corneal endothelium without addition of Y-27632 was used for the ROCK inhibitor(−) group. At 72 hr from the start of the culture, the culture medium was exchanged and, after 72 hr, both the ROCK inhibitor(+) group and ROCK inhibitor(−) group were cultured in a normal medium for corneal endothelium free of Y-27632. On every passage, photographs of the cells were taken with a phase contrast microscope, cell density was measured, and the influence of Y-27632 on the density of the cultured monkey corneal endothelial cells was studied.

CC(N)[C@H]1CC[C@H](C(=O)Nc2ccncc2)CC1 (single isomer, unassigned; (+)) [Y-27632, (+)-trans-4-(1-aminoethyl)-1-(4-pyridylcarbamoyl)cyclohexane]
number of days before reaching confluent ([1]; 7 for ROCK inhibitor(−)): 3 days | cells adhered onto the plate as compared to ROCK inhibitor(−) ([1]; after 24 hr from the start of the culture): apparently more cells were adhered onto the plate | cell layer morphology and density on day 7 after the start of the culture [2]: a confluent and highly dense single cell layer consisting of cells (uniform polygonal cells) similar to normal corneal endothelial cells was formed | number of cells that adhered onto the plate at 24 hr after the passage, compared to medium without Y-27632 [3]: significantly high | number of apoptotic cells per 1×10^4 cells, compared to ROCK inhibitor(−) group [4]: significant decrease | ratio of apoptotic cells to the entire cells, compared to ROCK inhibitor(−) group [4]: significant decrease | cell density throughout the passage culture, compared to ROCK inhibitor(−) group [5]: higher cell density
